Reference: ChEMBL document CHEMBL1153043, “Synthesis and evaluation of 1-(benzo[b]thiophen-2-yl)ethanone analogues as novel anti-osteoporosis agents acting on BMP-2 promotor” (Bioorg Med Chem Lett, 2009)

How the values were obtained:
[1] = Enhancement of BMP-2 expression in mouse MC3T3-E1 cells assessed as upregulation rate at 4 uM; assay type: functional, cell-based
Rattus norvegicus [2] = assay: Toxicity in sham operated Sprague-Dawley rat assessed as effect on bone histomorphometric parameters at 150 mg/kg/day, po for 90 days; assay type: organism-based; design: route oral; conditions: in vivo, 2160 h
Rattus norvegicus [3] = assay: Antiosteoporotic activity in ovariectomized Sprague-Dawley rat assessed as osteo cortex mineralization rate at 7.5 mg/kg/day, po for 90 days by bone histomorphometry; assay type: functional
Rattus norvegicus [4] = assay: Antiosteoporotic activity in ovariectomized Sprague-Dawley rat assessed as mineral apposition rate at 15 mg/kg/day, po for 90 days by bone histomorphometry; assay type: functional
Rattus norvegicus [5] = assay: Toxicity in sham operated Sprague-Dawley rat assessed as effect on creatinine level at 150 mg/kg/day, po for 90 days; assay type: organism-based; design: route oral; conditions: in vivo, 2160 h
Rattus norvegicus [6] = assay: Toxicity in sham operated Sprague-Dawley rat assessed as effect on total protein level at 150 mg/kg/day, po for 90 days; assay type: organism-based; design: route oral; conditions: in vivo, 2160 h
Rattus norvegicus [7] = assay: Toxicity in sham operated Sprague-Dawley rat assessed as effect on glutamic-pyruvic transaminase level at 150 mg/kg/day, po for 90 days; assay type: organism-based; design: route oral; conditions: in vivo, 2160 h
Rattus norvegicus [8] = assay: Toxicity in sham operated Sprague-Dawley rat assessed as effect on calcium level at 150 mg/kg/day, po for 90 days; assay type: organism-based; design: route oral; conditions: in vivo, 2160 h
Rattus norvegicus [9] = assay: Antiosteoporotic activity in ovariectomized Sprague-Dawley rat assessed as trabecular bone volume at 7.5 mg/kg/day, po for 90 days by bone histomorphometry; assay type: functional, Trabecula
Rattus norvegicus [10] = assay: Toxicity in sham operated Sprague-Dawley rat assessed as effect on direct-low density lipoprotein level at 150 mg/kg/day, po for 90 days; assay type: organism-based; design: route oral; conditions: in vivo, 2160 h
Rattus norvegicus [11] = assay: Antiosteoporotic activity in ovariectomized Sprague-Dawley rat assessed as trabecula resorption surface at 7.5 mg/kg/day, po for 90 days by bone histomorphometry; assay type: functional
Rattus norvegicus [12] = assay: Antiosteoporotic activity in ovariectomized Sprague-Dawley rat assessed as average osteoid width at 7.5 mg/kg/day, po for 90 days by bone histomorphometry; assay type: functional
Rattus norvegicus [13] = assay: Toxicity in sham operated Sprague-Dawley rat assessed as effect on total cholesterol level at 150 mg/kg/day, po for 90 days; assay type: organism-based; design: route oral; conditions: in vivo, 2160 h
[14] = Toxicity in ip dosed Kunming mouse; assay type: organism-based; conditions: in vivo
Rattus norvegicus [15] = assay: Toxicity in sham operated Sprague-Dawley rat assessed as effect on alkaline phosphatase level at 150 mg/kg/day, po for 90 days; assay type: organism-based; design: route oral; conditions: in vivo, 2160 h
Rattus norvegicus [16] = assay: Antiosteoporotic activity in ovariectomized Sprague-Dawley rat assessed as mineral apposition rate at 30 mg/kg/day, po for 90 days by bone histomorphometry; assay type: functional
Rattus norvegicus [17] = assay: Toxicity in sham operated Sprague-Dawley rat assessed as effect on glutamine-oxaloacetic transaminase level at 150 mg/kg/day, po for 90 days; assay type: organism-based; design: route oral; conditions: in vivo, 2160 h
Rattus norvegicus [18] = assay: Antiosteoporotic activity in po dosed ovariectomized Sprague-Dawley rat assessed as trabecula resorption surface administered for 90 days by bone histomorphometry; assay type: functional, organism-based
Rattus norvegicus [19] = assay: Toxicity in sham operated Sprague-Dawley rat assessed as effect on general behavior at 150 mg/kg/day, po for 90 days; assay type: organism-based; design: route oral; conditions: in vivo, 2160 h
Rattus norvegicus [20] = assay: Antiosteoporotic activity in po dosed ovariectomized Sprague-Dawley rat assessed as trabecular bone volume administered for 90 days by bone histomorphometry; assay type: functional, organism-based; conditions: Trabecula
Rattus norvegicus [21] = assay: Toxicity in sham operated Sprague-Dawley rat assessed as effect on direct-high density lipoprotein level at 150 mg/kg/day, po for 90 days; assay type: organism-based; design: route oral; conditions: in vivo, 2160 h
Rattus norvegicus [22] = assay: Toxicity in sham operated Sprague-Dawley rat assessed as effect on triglycerides level at 150 mg/kg/day, po for 90 days; assay type: organism-based; design: route oral; conditions: in vivo, 2160 h
[23] = Toxicity in po dosed Kunming mouse; assay type: organism-based; conditions: in vivo
Rattus norvegicus [24] = assay: Antiosteoporotic activity in po dosed ovariectomized Sprague-Dawley rat assessed as osteo cortex mineralization rate administered for 90 days by bone histomorphometry; assay type: functional, organism-based
Rattus norvegicus [25] = assay: Antiosteoporotic activity in po dosed ovariectomized Sprague-Dawley rat assessed as mineral apposition rate administered for 90 days by bone histomorphometry; assay type: functional, organism-based
Rattus norvegicus [26] = assay: Antiosteoporotic activity in ovariectomized Sprague-Dawley rat assessed as mineral apposition rate at 7.5 mg/kg/day, po for 90 days by bone histomorphometry; assay type: functional
Rattus norvegicus [27] = assay: Antiosteoporotic activity in ovariectomized Sprague-Dawley rat assessed as trabecula formation surface at 7.5 mg/kg/day, po for 90 days by bone histomorphometry; assay type: functional
Rattus norvegicus [28] = assay: Toxicity in sham operated Sprague-Dawley rat assessed as effect on total bilirubin level at 150 mg/kg/day, po for 90 days; assay type: organism-based; design: route oral; conditions: in vivo, 2160 h
Rattus norvegicus [29] = assay: Antiosteoporotic activity in ovariectomized Sprague-Dawley rat assessed as average osteoid width at 15 mg/kg/day, po for 90 days by bone histomorphometry; assay type: functional
Rattus norvegicus [30] = assay: Antiosteoporotic activity in ovariectomized Sprague-Dawley rat assessed as trabecula resorption surface at 15 mg/kg/day, po for 90 days by bone histomorphometry; assay type: functional
Rattus norvegicus [31] = assay: Antiosteoporotic activity in ovariectomized Sprague-Dawley rat assessed as osteo cortex mineralization rate at 30 mg/kg/day, po for 90 days by bone histomorphometry; assay type: functional
Rattus norvegicus [32] = assay: Antiosteoporotic activity in po dosed ovariectomized Sprague-Dawley rat assessed as trabecula formation surface administered for 90 days by bone histomorphometry; assay type: functional, organism-based
Rattus norvegicus [33] = assay: Antiosteoporotic activity in ovariectomized Sprague-Dawley rat assessed as trabecular bone volume at 30 mg/kg/day, po for 90 days by bone histomorphometry; assay type: functional, Trabecula
Rattus norvegicus [34] = assay: Antiosteoporotic activity in ovariectomized Sprague-Dawley rat assessed as trabecular bone volume at 15 mg/kg/day, po for 90 days by bone histomorphometry; assay type: functional, Trabecula
Rattus norvegicus [35] = assay: Antiosteoporotic activity in ovariectomized Sprague-Dawley rat assessed as osteo cortex mineralization rate at 15 mg/kg/day, po for 90 days by bone histomorphometry; assay type: functional
Rattus norvegicus [36] = assay: Antiosteoporotic activity in po dosed ovariectomized Sprague-Dawley rat assessed as average osteoid width administered for 90 days by bone histomorphometry; assay type: functional, organism-based
Rattus norvegicus [37] = assay: Antiosteoporotic activity in ovariectomized Sprague-Dawley rat assessed as trabecula formation surface at 30 mg/kg/day, po for 90 days by bone histomorphometry; assay type: functional
Rattus norvegicus [38] = assay: Toxicity in sham operated Sprague-Dawley rat assessed as effect on blood urea nitrogen level at 150 mg/kg/day, po for 90 days; assay type: organism-based; design: route oral; conditions: in vivo, 2160 h
Rattus norvegicus [39] = assay: Antiosteoporotic activity in ovariectomized Sprague-Dawley rat assessed as average osteoid width at 30 mg/kg/day, po for 90 days by bone histomorphometry; assay type: functional
Rattus norvegicus [40] = assay: Antiosteoporotic activity in ovariectomized Sprague-Dawley rat assessed as trabecula resorption surface at 30 mg/kg/day, po for 90 days by bone histomorphometry; assay type: functional
Rattus norvegicus [41] = assay: Toxicity in sham operated Sprague-Dawley rat assessed as effect on glucose level at 150 mg/kg/day, po for 90 days; assay type: organism-based; design: route oral; conditions: in vivo, 2160 h
Rattus norvegicus [42] = assay: Antiosteoporotic activity in ovariectomized Sprague-Dawley rat assessed as trabecula formation surface at 15 mg/kg/day, po for 90 days by bone histomorphometry; assay type: functional
Rattus norvegicus [43] = assay: Toxicity in sham operated Sprague-Dawley rat assessed as effect on albumin level at 150 mg/kg/day, po for 90 days; assay type: organism-based; design: route oral; conditions: in vivo, 2160 h

Structure (SMILES): CC(=O)c1sc2ccc(C)c(Cl)c2c1C
- Activity [1]: 6.5%

Structure (SMILES): CC(=O)c1sc2ccc(C(F)(F)F)cc2c1C
- Activity [1]: 16.7%

Structure (SMILES): NNC(=O)c1cc2ccccc2s1
- Activity [1]: 7.8%

Structure (SMILES): CC(=O)c1cc2cccc(C(F)(F)F)c2s1
- Activity [1]: 30.2%

Structure (SMILES): CC(=O)c1cc2ccccc2s1
- Activity (Rattus norvegicus [2]): Non-toxic
- Activity (Rattus norvegicus [3]): 3.42 µm/day
- Activity (Rattus norvegicus [4]): 2.19 µm/day
- Activity [1]: 35.6%
- Activity (Rattus norvegicus [5]): Non-toxic
- Activity (Rattus norvegicus [6]): Non-toxic
- Activity (Rattus norvegicus [7]): Non-toxic
- Activity (Rattus norvegicus [8]): Non-toxic
- Activity (Rattus norvegicus [9]): 14.41%
- Activity (Rattus norvegicus [10]): Non-toxic
- Activity (Rattus norvegicus [11]): 7.81%
- Activity (Rattus norvegicus [12]): 11.4 µm
- Activity (Rattus norvegicus [13]): Non-toxic
- LD50 [14]: 1580 mg/kg
- Activity (Rattus norvegicus [15]): Non-toxic
- Activity (Rattus norvegicus [16]): 2.18 µm/day
- Activity (Rattus norvegicus [17]): Non-toxic
- Activity (Rattus norvegicus [18]): Dose-dependent effect
- Activity (Rattus norvegicus [19]): Non-toxic
- Activity (Rattus norvegicus [20]): Dose-dependent effect
- Activity (Rattus norvegicus [21]): Non-toxic
- Activity (Rattus norvegicus [22]): Non-toxic
- LD50 [23]: 5000 mg/kg
- Activity (Rattus norvegicus [24]): Dose-dependent effect
- Activity (Rattus norvegicus [25]): Dose-dependent effect
- Activity (Rattus norvegicus [26]): 2.32 µm/day
- Activity (Rattus norvegicus [27]): 7.4%
- Activity (Rattus norvegicus [28]): Non-toxic
- Activity (Rattus norvegicus [29]): 10.9 µm
- Activity (Rattus norvegicus [30]): 5.16%
- Activity (Rattus norvegicus [31]): 3.22 µm/day
- Activity (Rattus norvegicus [32]): Dose-dependent effect
- Activity (Rattus norvegicus [33]): 21.02%
- Activity (Rattus norvegicus [34]): 19.39%
- Activity (Rattus norvegicus [35]): 3.14 µm/day
- Activity (Rattus norvegicus [36]): Dose-dependent effect
- Activity (Rattus norvegicus [37]): 6.39%
- Activity (Rattus norvegicus [38]): Non-toxic
- Activity (Rattus norvegicus [39]): 10.8 µm
- Activity (Rattus norvegicus [40]): 4.74%
- Activity (Rattus norvegicus [41]): Non-toxic
- Activity (Rattus norvegicus [42]): 6.64%
- Activity (Rattus norvegicus [43]): Non-toxic
